Reference: patent publication US20110173718A1, “HERBICIDE TOLERANT PLANTS” (SYNGENTA CROP PROTECTION, INC., priority 2008, published 2011)

Test system: weeds
Test: Glasshouse weed control by HST/HPPD (mesotrione) mixtures, pre-emergence
Assay type: in vivo
Conditions: for colby: Colby synergy score; for % Damage at 14 DAA, 1 g ai ha^−1 mesotrione / % Damage at 14 DAA, no-mesotrione: N = 3
Procedure: Weed seeds are planted out in trays containing suitable soil (for example 50% peat, 50% John Innes soil no 3) and grown in the glass house conditions under 24-27° C. day; 18-21° C. night and approximately a 14 h (or longer in UK summer) photoperiod. Humidity is ˜65% and light levels up to 2000 μmol/m^2 at bench level. Trays are sprayed with test chemicals dissolved in water with 0.2-0.25% X-77 surfactant and sprayed from a boom on a suitable track sprayer moving at about 2 mph in a suitable track sprayer (for example a DeVries spray chamber with the nozzle about 2 inches from the plant tops). Spray volume is suitably 500-1000 l/ha. Sprays are carried out both pre-emergence and over small plants at about 7-12 d post-emergence
Plants are assessed 14 DAT and herbicidal damage is scored on a scale from 0 to 100%. The HST inhibitor compound 2.30 (designated compound A in table 16 and 17), haloxydine (compound 1.1) and compound 2.13 (designated compound AE in tables 16 and 17) are sprayed at rates between 0 and 500 g/ha.

[1] = ALOMY, 16 g/ha + mesotrione 1 g ai/ha
[2] = ALOMY, 31 g/ha + mesotrione 1 g ai/ha
[3] = ALOMY, 63 g/ha + mesotrione 1 g ai/ha
[4] = ALOMY, 125 g/ha + mesotrione 1 g ai/ha
[5] = ALOMY, 250 g/ha + mesotrione 1 g ai/ha
[6] = ALOMY, 500 g/ha + mesotrione 1 g ai/ha
[7] = AMARE, 16 g/ha + mesotrione 1 g ai/ha
[8] = AMARE, 31 g/ha + mesotrione 1 g ai/ha
[9] = AMARE, 63 g/ha + mesotrione 1 g ai/ha
[10] = AMARE, 125 g/ha + mesotrione 1 g ai/ha
[11] = AMARE, 250 g/ha + mesotrione 1 g ai/ha
[12] = AMARE, 500 g/ha + mesotrione 1 g ai/ha
[13] = ECHCG, 16 g/ha + mesotrione 1 g ai/ha
[14] = ECHCG, 31 g/ha + mesotrione 1 g ai/ha
[15] = ECHCG, 63 g/ha + mesotrione 1 g ai/ha
[16] = ECHCG, 125 g/ha + mesotrione 1 g ai/ha
[17] = ECHCG, 250 g/ha + mesotrione 1 g ai/ha
[18] = ECHCG, 500 g/ha + mesotrione 1 g ai/ha
[19] = IPOHE, 16 g/ha + mesotrione 1 g ai/ha
[20] = IPOHE, 31 g/ha + mesotrione 1 g ai/ha
[21] = IPOHE, 63 g/ha + mesotrione 1 g ai/ha
[22] = IPOHE, 125 g/ha + mesotrione 1 g ai/ha
[23] = IPOHE, 250 g/ha + mesotrione 1 g ai/ha
[24] = IPOHE, 500 g/ha + mesotrione 1 g ai/ha
[25] = SETFA, 16 g/ha + mesotrione 1 g ai/ha
[26] = SETFA, 31 g/ha + mesotrione 1 g ai/ha
[27] = SETFA, 63 g/ha + mesotrione 1 g ai/ha
[28] = SETFA, 125 g/ha + mesotrione 1 g ai/ha
[29] = SETFA, 250 g/ha + mesotrione 1 g ai/ha
[30] = SETFA, 500 g/ha + mesotrione 1 g ai/ha
[31] = SOLNI, 16 g/ha + mesotrione 1 g ai/ha
[32] = SOLNI, 31 g/ha + mesotrione 1 g ai/ha
[33] = SOLNI, 63 g/ha + mesotrione 1 g ai/ha
[34] = SOLNI, 125 g/ha + mesotrione 1 g ai/ha
[35] = SOLNI, 250 g/ha + mesotrione 1 g ai/ha
[36] = SOLNI, 500 g/ha + mesotrione 1 g ai/ha

## O=c1c(Cl)c(F)[nH]c(F)c1Cl [Haloxidine]
[1]
  colby: 5%
  % Damage at 14 DAA, 1 g ai ha^−1 mesotrione: 8%
ALOMY, 16 g/ha
  % Damage at 14 DAA, no-mesotrione: 3%
[2]
  colby: 12%
  % Damage at 14 DAA, 1 g ai ha^−1 mesotrione: 25%
ALOMY, 31 g/ha
  % Damage at 14 DAA, no-mesotrione: 13%
[3]
  colby: 8%
  % Damage at 14 DAA, 1 g ai ha^−1 mesotrione: 50%
ALOMY, 63 g/ha
  % Damage at 14 DAA, no-mesotrione: 42%
[4]
  colby: 10%
  % Damage at 14 DAA, 1 g ai ha^−1 mesotrione: 77%
ALOMY, 125 g/ha
  % Damage at 14 DAA, no-mesotrione: 67%
[5]
  colby: −3%
  % Damage at 14 DAA, 1 g ai ha^−1 mesotrione: 78%
ALOMY, 250 g/ha
  % Damage at 14 DAA, no-mesotrione: 82%
[6]
  colby: −2%
  % Damage at 14 DAA, 1 g ai ha^−1 mesotrione: 83%
ALOMY, 500 g/ha
  % Damage at 14 DAA, no-mesotrione: 85%
[7]
  colby: 2%
  % Damage at 14 DAA, 1 g ai ha^−1 mesotrione: 42%
AMARE, 16 g/ha
  % Damage at 14 DAA, no-mesotrione: 38%
[8]
  colby: 1%
  % Damage at 14 DAA, 1 g ai ha^−1 mesotrione: 75%
AMARE, 31 g/ha
  % Damage at 14 DAA, no-mesotrione: 73%
[9]
  colby: 5%
  % Damage at 14 DAA, 1 g ai ha^−1 mesotrione: 93%
AMARE, 63 g/ha
  % Damage at 14 DAA, no-mesotrione: 88%
[10]
  colby: 0%
  % Damage at 14 DAA, 1 g ai ha^−1 mesotrione: 100%
AMARE, 125 g/ha
  % Damage at 14 DAA, no-mesotrione: 100%
[11]
  colby: 0%
  % Damage at 14 DAA, 1 g ai ha^−1 mesotrione: 100%
AMARE, 250 g/ha
  % Damage at 14 DAA, no-mesotrione: 100%
[12]
  colby: 0%
  % Damage at 14 DAA, 1 g ai ha^−1 mesotrione: 100%
AMARE, 500 g/ha
  % Damage at 14 DAA, no-mesotrione: 100%
[13]
  colby: 7%
  % Damage at 14 DAA, 1 g ai ha^−1 mesotrione: 20%
ECHCG, 16 g/ha
  % Damage at 14 DAA, no-mesotrione: 13%
[14]
  colby: −2%
  % Damage at 14 DAA, 1 g ai ha^−1 mesotrione: 23%
ECHCG, 31 g/ha
  % Damage at 14 DAA, no-mesotrione: 25%
[15]
  colby: 13%
  % Damage at 14 DAA, 1 g ai ha^−1 mesotrione: 53%
ECHCG, 63 g/ha
  % Damage at 14 DAA, no-mesotrione: 40%
[16]
  colby: 5%
  % Damage at 14 DAA, 1 g ai ha^−1 mesotrione: 78%
ECHCG, 125 g/ha
  % Damage at 14 DAA, no-mesotrione: 73%
[17]
  colby: −8%
  % Damage at 14 DAA, 1 g ai ha^−1 mesotrione: 83%
ECHCG, 250 g/ha
  % Damage at 14 DAA, no-mesotrione: 92%
[18]
  colby: 7%
  % Damage at 14 DAA, 1 g ai ha^−1 mesotrione: 95%
ECHCG, 500 g/ha
  % Damage at 14 DAA, no-mesotrione: 88%
[19]
  colby: 0%
  % Damage at 14 DAA, 1 g ai ha^−1 mesotrione: 0%
IPOHE, 16 g/ha
  % Damage at 14 DAA, no-mesotrione: 0%
[20]
  colby: 0%
  % Damage at 14 DAA, 1 g ai ha^−1 mesotrione: 0%
IPOHE, 31 g/ha
  % Damage at 14 DAA, no-mesotrione: 0%
[21]
  colby: −7%
  % Damage at 14 DAA, 1 g ai ha^−1 mesotrione: 8%
IPOHE, 63 g/ha
  % Damage at 14 DAA, no-mesotrione: 15%
[22]
  colby: −10%
  % Damage at 14 DAA, 1 g ai ha^−1 mesotrione: 52%
IPOHE, 125 g/ha
  % Damage at 14 DAA, no-mesotrione: 62%
[23]
  colby: −13%
  % Damage at 14 DAA, 1 g ai ha^−1 mesotrione: 67%
IPOHE, 250 g/ha
  % Damage at 14 DAA, no-mesotrione: 80%
[24]
  colby: 3%
  % Damage at 14 DAA, 1 g ai ha^−1 mesotrione: 87%
IPOHE, 500 g/ha
  % Damage at 14 DAA, no-mesotrione: 83%
[25]
  colby: 10%
  % Damage at 14 DAA, 1 g ai ha^−1 mesotrione: 10%
SETFA, 16 g/ha
  % Damage at 14 DAA, no-mesotrione: 0%
[26]
  colby: 7%
  % Damage at 14 DAA, 1 g ai ha^−1 mesotrione: 32%
SETFA, 31 g/ha
  % Damage at 14 DAA, no-mesotrione: 25%
[27]
  colby: 8%
  % Damage at 14 DAA, 1 g ai ha^−1 mesotrione: 58%
SETFA, 63 g/ha
  % Damage at 14 DAA, no-mesotrione: 50%
[28]
  colby: 2%
  % Damage at 14 DAA, 1 g ai ha^−1 mesotrione: 90%
SETFA, 125 g/ha
  % Damage at 14 DAA, no-mesotrione: 88%
[29]
  colby: 0%
  % Damage at 14 DAA, 1 g ai ha^−1 mesotrione: 95%
SETFA, 250 g/ha
  % Damage at 14 DAA, no-mesotrione: 95%
[30]
  colby: 2%
  % Damage at 14 DAA, 1 g ai ha^−1 mesotrione: 98%
SETFA, 500 g/ha
  % Damage at 14 DAA, no-mesotrione: 97%
[31]
  colby: 30%
  % Damage at 14 DAA, 1 g ai ha^−1 mesotrione: 47%
SOLNI, 16 g/ha
  % Damage at 14 DAA, no-mesotrione: 0%
[32]
  colby: 21%
  % Damage at 14 DAA, 1 g ai ha^−1 mesotrione: 60%
SOLNI, 31 g/ha
  % Damage at 14 DAA, no-mesotrione: 27%
[33]
  colby: 18%
  % Damage at 14 DAA, 1 g ai ha^−1 mesotrione: 75%
SOLNI, 63 g/ha
  % Damage at 14 DAA, no-mesotrione: 48%
[34]
  colby: 3%
  % Damage at 14 DAA, 1 g ai ha^−1 mesotrione: 92%
SOLNI, 125 g/ha
  % Damage at 14 DAA, no-mesotrione: 87%
[35]
  colby: 4%
  % Damage at 14 DAA, 1 g ai ha^−1 mesotrione: 100%
SOLNI, 250 g/ha
  % Damage at 14 DAA, no-mesotrione: 95%
[36]
  colby: 0%
  % Damage at 14 DAA, 1 g ai ha^−1 mesotrione: 100%
SOLNI, 500 g/ha
  % Damage at 14 DAA, no-mesotrione: 100%
